Experimental data from EP4527828A1, “BIPHENYL COMPOUND, PHARMACEUTICAL COMPOSITION, METHOD FOR PREPARING SAME, AND USE THEREOF” (Longivitron (Suzhou) Biotechnology Co., Ltd, priority 2022, dated 2023).
Where two headings read alike, the source gives them in different places.

Experiments:
mouse melanoma B16F10 = assay type: in vivo
Method: (1) 43 8-week-old female C57B/L mice were selected and divided into 5 cages. One preserved B16F10 tumor-bearing female C57L mouse was sacrificed by cervical dislocation. 75% alcohol was sprayed on the skin of the mouse in a laminar flow cabinet, and the tumor tissue of the tumor-bearing mouse was separated by sterilized surgical instruments and cut into a sterilized 5 mL homogenizer with ophthalmic scissors. The tumor tissue was slowly milled on ice to form a tumor fluid. The number of cells was 6.85 × 10^7 cells/mL as counted with a BioRad counting instrument. The tumor fluid was placed in an Erlenmeyer flask in an ice bath for later use. The tumor fluid was evenly aspirated using a 1 mL sterile syringe and inoculated 0.2 mL/C57/L mouse. After the inoculation was completed, the mice continued to be fed under the initial feeding conditions.
(4) The animals were sacrificed, and the tumors were separated and weighed. The animals in each group were treated immediately 1 h after administration on the last day and weighed, and the tumor tissue was weighed.
Animal grouping and administration: On the second day after tumor fluid inoculation of C57B/L mice, tumor-bearing mice were randomly grouped: a control group, a Compound 8-5 mg/kg group, a Compound 8-10 mg/kg group, a Compound 8-20 mg/kg group, and a positive control drug cyclophosphamide CTX-100 mg/kg group. The animals were weighed and administered daily. The drugs to be tested were administered orally daily, and the positive control drug CTX was administered intraperitoneally once. After the experiment was completed, the body weights and tumor weights of the animals were weighed, and the tumor weight inhibition rate (%) was calculated.

LAG3/FGL1 = target: T1, LAG3/FGL1 (Homo sapiens, UniProt P18627); test: HTRF binding inhibition of LAG3 and its ligand FGL1; conditions: Table 2; read-out: IC50 value for inhibiting LAG3/FGL1 interaction
T1 sequence (P18627 23-450 limits assumed): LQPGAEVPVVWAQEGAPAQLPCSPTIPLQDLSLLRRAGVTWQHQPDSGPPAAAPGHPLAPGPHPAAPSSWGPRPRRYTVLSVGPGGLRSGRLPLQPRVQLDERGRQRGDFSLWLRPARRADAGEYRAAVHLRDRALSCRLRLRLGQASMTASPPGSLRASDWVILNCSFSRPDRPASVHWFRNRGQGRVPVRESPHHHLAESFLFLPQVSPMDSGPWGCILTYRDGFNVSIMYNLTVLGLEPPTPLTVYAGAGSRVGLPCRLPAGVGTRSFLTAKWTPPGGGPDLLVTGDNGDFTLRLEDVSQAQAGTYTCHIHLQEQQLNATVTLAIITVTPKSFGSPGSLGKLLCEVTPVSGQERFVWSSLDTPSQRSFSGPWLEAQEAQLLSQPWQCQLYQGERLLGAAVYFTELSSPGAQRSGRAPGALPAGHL
Method: Reagent preparation: ① Tag1-LAG3 protein: a protein solution with a concentration of 50 nM (20 µL with a final system concentration of 10 nM) was prepared using a diluent. ② Tag2-FGL1 protein: a protein solution with a concentration of 100 nM (20 µL with a final system concentration of 20 nM) was prepared using a diluent. ③ Anti-Tag1-Tb: a 100× stock solution was diluted with a detection buffer to a 1 × stock solution. ④ Anti-Tag2-XL665: a 100× stock solution was diluted with a detection buffer to a 1 × stock solution.
Assay step: (1) 2 µL of compound solution (with a concentration to be measured of 10×) was added to a 384-well opaque plate having a white background, 4 µL of Tag1-LAG3 protein and 4 µL of Tag2-FGL1 protein were added, respectively, and the plate was incubated at room temperature for 15 min; (2) Anti-Tag1-Tb and Anti-Tag2-XL665 were mixed at a ratio of 1:1 in advance, and 10 µL of mix solution was added to each well; (3) the plate was gently mixed, sealed, and incubated at room temperature for 1 h or overnight before detection.

SMILES: CCCCCCOc1ccc(C(=O)O)cc1-c1cc(C(=O)NCCCCNC(=O)C(F)(F)F)ccc1OCCCCCC [Compound 8]
- Inhibition rate (mouse melanoma B16F10; B16F10, 5 mg/kg orally daily): 16.94%
- Tumor weight (mouse melanoma B16F10; B16F10, 5 mg/kg orally daily): 1.50 ± 0.27 g
- Inhibition rate (mouse melanoma B16F10; B16F10, 10 mg/kg orally daily): 19.78%
- Tumor weight (mouse melanoma B16F10; B16F10, 10 mg/kg orally daily): 1.45 ± 0.70 g
- Inhibition rate (mouse melanoma B16F10; B16F10, 20 mg/kg orally daily): 53.64%
- Tumor weight (mouse melanoma B16F10; B16F10, 20 mg/kg orally daily): 0.80 ± 0.46 g
- IC50 (LAG3/FGL1): 10 µM
